Experimental data published in patent publication US12552793B2, “Purine derivative and medical use thereof” (KANGBAIDA (SICHUAN) BIOTECHNOLOGY CO., LTD., priority 2019, dated 2026).
pIC50: −log10 of the molar value.

target: T1, DNA-PK kinase (Homo sapiens (Human), UniProt P78527); assay: not given
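Note: enzyme inhibition of DNA-PK with kinase activity read out by chemiluminescence on a microplate reader after adding a kinase detection reagent.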

| pIC50 | SMILES |
| --- | --- |
| 8.08 | Cc1cc(C(N)=O)c(F)cc1Nc1ncc2c(n1)n(C13CC4CC(C1)C(C#N)C(C4)C3)c(=O)n2C (single isomer, unassigned) [Compound 24-2, 4-((9-(4-Cyanoadamantan-1-yl)-7-methyl-8-oxo-8,9-dihydro-7H-purin-2-yl)amino)-2-fluoro-5-methylbenzamide] |
| 11.00 | Cc1cc2ncnn2cc1Nc1ncc2c(n1)n(C13CC4CC(C1)C(C#N)C(C4)C3)c(=O)n2C (single isomer, unassigned) [Compound 21-1, 5-(7-Methyl-2-((7-methyl-[1,2,4]triazolo[1,5-a]pyridin-6-yl)amino)-8-oxo-7,8-dihydro-9H-purin-9-yl)adamantane-2-carbonitrile] |
| 10.00 | Cc1cc2ncnn2cc1Nc1ncc2c(n1)n(C13CC4CC(C1)C(C#N)C(C4)C3)c(=O)n2C (single isomer, unassigned) [Compound 21-2, 5-(7-Methyl-2-((7-methyl-[1,2,4]triazolo[1,5-a]pyridin-6-yl)amino)-8-oxo-7,8-dihydro-9H-purin-9-yl)adamantane-2-carbonitrile] |
| 10.10 | Cc1cc2c(cc1Nc1ncc3c(n1)n(C14CC5CC(C1)C(=O)C(C5)C4)c(=O)n3C)CCO2 [Compound 30, 7-Methyl-2-((6-methyl-2,3-dihydrobenzofuran-5-yl)amino)-9-(4-oxoadamantan-1-yl)-7,9-dihydro-8H-purin-8-one] |
| 8.64 | Cc1cc2c(cc1Nc1ncc3c(n1)n(C14CC5CC(CC(O)(C5)C1)C4)c(=O)n3C)CCO2 [Compound 32, 9-(3-Hydroxyadamantan-1-yl)-7-methyl-2-((6-methyl-2,3-dihydrobenzofuran-5-yl)amino)-7,9-dihydro-8H-purin-8-one] |
| 8.12 | Cc1cc(C(N)=O)c(F)cc1Nc1ncc2c(n1)n(C13CC4CC(CC(C#N)(C4)C1)C3)c(=O)n2C [Compound 34, 4-((9-(3-Cyanoadamantan-1-yl)-7-methyl-8-oxo-8,9-dihydro-7H-purin-2-yl)amino)-2-fluoro-5-methylbenzamide] |
| 9.35 | Cc1cc2ncnn2cc1Nc1ncc2c(n1)n(C13CC4CC(CC(C(=O)O)(C4)C1)C3)c(=O)n2C [Compound 4, 3-(7-Methyl-2-((7-methyl-[1,2,4]triazolo[1,5-a]pyridin-6-yl)amino)-8-oxo-7,8-dihydro-9H-purin-9-yl)adamantane-1-carboxylic acid] |
| 7.98 | Cc1cc(C(N)=O)c(F)cc1Nc1ncc2c(n1)n(C1C3CC4CC1CC(O)(C4)C3)c(=O)n2C (single isomer, unassigned) [Compound 27-1, 2-Fluoro-4-((9-(5-hydroxyadamantan-2-yl)-7-methyl-8-oxo-8,9-dihydro-7H-purin-2-yl)amino)-5-methylbenzamide] |
| 8.19 | Cn1c(=O)n(C23CC4CC(CC(O)(C4)C2)C3)c2nc(Nc3cc4c(cc3Cl)OCC4)ncc21 [Compound 33, 2-((6-Chloro-2,3-dihydrobenzofuran-5-yl)amino)-9-(3-hydroxyadamantan-1-yl)-7-methyl-7,9-dihydro-8H-purin-8-one] |
| 11.00 | Cc1cc2ncnn2cc1Nc1ncc2c(n1)n(C13CC4CC(CC(CO)(C4)C1)C3)c(=O)n2C [Compound 8, 7-Methyl-2-[(7-methyl-[1,2,4]triazolo[1,5-a]pyridin-6-yl)amino]-9-[3-(hydroxymethyl)adamantan-1-yl]-8,9-dihydro-7H-purin-8-one] |
| 9.18 | Cc1cc(C(N)=O)c(F)cc1Nc1ncc2c(n1)n(C13CC4CC(C1)C(C#N)C(C4)C3)c(=O)n2C (single isomer, unassigned) [Compound 24-1, 4-((9-(4-Cyanoadamantan-1-yl)-7-methyl-8-oxo-8,9-dihydro-7H-purin-2-yl)amino)-2-fluoro-5-methylbenzamide] |
| 8.41 | Cc1cc2ncnn2cc1Nc1ncc2c(n1)n(C13CC4CC(CC(C(N)=O)(C4)C1)C3)c(=O)n2C [Compound 5, 3-(7-Methyl-2-[(7-methyl-[1,2,4]triazolo[1,5-a]pyridin-6-yl)amino]-8-oxo-8,9-dihydro-7H-purin-9-yl)adamantane-1-carboxamide] |
| 9.12 | Cc1cc2ncnn2cc1Nc1ncc2c(n1)n(C1C3CC4CC1CC(C#N)(C4)C3)c(=O)n2C (single isomer, unassigned) [Compound 28-1, 4-(7-Methyl-2-((7-methyl-[1,2,4]triazolo[1,5-a]pyridin-6-yl)amino)-8-oxo-7,8-dihydro-9H-purin-9-yl)adamantane-1-carbonitrile] |
| 7.28 | Cc1cc(C#N)ccc1Nc1ncc2c(n1)n(C1C3CC4CC1CC(O)(C4)C3)c(=O)n2C (single isomer, unassigned) [Compound 13-2, 4-((9-(5-Hydroxyadamantan-2-yl)-7-methyl-8-oxo-8,9-dihydro-7H-purin-2-yl)amino)-3-methylbenzonitrile] |
| 8.96 | Cc1cc2ncnn2cc1Nc1ncc2c(n1)n(C13CC4CC(CC(C(=O)N5CCOCC5)(C4)C1)C3)c(=O)n2C [Compound 9, 7-Methyl-2-[(7-methyl-[1,2,4]triazolo[1,5-a]pyridin-6-yl)amino]-9-[3-(morpholine-4-carbonyl)adamantan-1-yl]-8,9-dihydro-7H-purin-8-one] |
| 10.00 | COC12CC3CC(C1)CC(n1c(=O)n(C)c4cnc(Nc5cn6ncnc6cc5C)nc41)(C3)C2 [Compound 11, 9-(3-Methoxyadamantan-1-yl)-7-methyl-2-((7-methyl-[1,2,4]triazolo[1,5-a]pyridin-6-yl)amino)-7,9-dihydro-8H-purin-8-one] |
| 10.00 | Cc1cc2ncnn2cc1Nc1ncc2c(n1)n(C1C3CC4CC1CC(C#N)(C4)C3)c(=O)n2C (single isomer, unassigned) [Compound 28-2, 4-(7-Methyl-2-((7-methyl-[1,2,4]triazolo[1,5-a]pyridin-6-yl)amino)-8-oxo-7,8-dihydro-9H-purin-9-yl)adamantane-1-carbonitrile] |
| 11.00 | CCOC(=O)C12CC3CC(C1)CC(n1c(=O)n(C)c4cnc(Nc5cn6ncnc6cc5C)nc41)(C3)C2 [Compound 7, Ethyl-3-(7-methyl-2-[(7-methyl-[1,2,4]triazolo[1,5-a]pyridin-6-yl)amino]-8-oxo-8,9-dihydro-7H-purin-9-yl)adamantane-1-carboxylate] |
| 7.83 | Cc1cc2ncnn2cc1Nc1ncc2c(n1)n(C13CC4CC(CC(C(=O)OC(C)(C)C)(C4)C1)C3)c(=O)n2C [Compound 3, tert-Butyl-3-(7-methyl-2-[(7-methyl-[1,2,4]triazolo[1,5-a]pyridin-6-yl)amino]-8-oxo-8,9-dihydro-7H-purin-9-yl)adamantane-1-carboxylate] |
| 10.52 | Cc1cc2ncnn2cc1Nc1ncc2c(n1)n(C13CC4CC(C1)C(=O)C(C4)C3)c(=O)n2C [Compound 19, 7-Methyl-2-((7-methyl-[1,2,4]triazolo[1,5-a]pyridin-6-yl)amino)-9-(4-oxoadamantan-1-yl)-7,9-dihydro-8H-purin-8-one] |
| 10.00 | COC1(OC)C2CC3CC1CC(n1c(=O)n(C)c4cnc(Nc5cc6c(cc5C)OCC6)nc41)(C3)C2 [Compound 31, 9-(4,4-Dimethoxyadamantan-1-yl)-7-methyl-2-((6-methyl-2,3-dihydrobenzofuran-5-yl)amino)-7,9-dihydro-8H-purin-8-one] |
| 11.00 | Cc1cc2ncccc2cc1Nc1ncc2c(n1)n(C13CC4CC(CC(O)(C4)C1)C3)c(=O)n2C [Compound 2, 9-(3-Hydroxyadamantan-1-yl)-7-methyl-2-((7-methylquinolin-6-yl)amino)-7,9-dihydro-8H-purin-8-one] |
| 9.32 | Cc1cc(C(N)=O)c(F)cc1Nc1ncc2c(n1)n(C1C3CC4CC1CC(O)(C4)C3)c(=O)n2C (single isomer, unassigned) [2-Fluoro-4-((9-(5-hydroxyadamantan-2-yl)-7-methyl-8-oxo-8,9-dihydro-7H-purin-2-yl)amino)-5-methylbenzamide] |
| 8.65 | Cc1cc2ncnn2cc1Nc1ncc2c(n1)n(C13CC4CC(CC(N)(C4)C1)C3)c(=O)n2C [Compound 10, 7-Methyl-2-[(7-methyl-[1,2,4]triazolo[1,5-a]pyridin-6-yl)amino]-9-[3-aminoadamantan-1-yl]-8,9-dihydro-7H-purin-8-one] |
| 11.00 | Cc1cc(C(N)=O)c(F)cc1Nc1ncc2c(n1)n(C13CC4CC(C1)C(=O)C(C4)C3)c(=O)n2C [Compound 25, 2-Fluoro-5-methyl-4-((7-methyl-8-oxo-9-(4-oxoadamantan-1-yl)-8,9-dihydro-7H-purin-2-yl)amino)benzamide] |
| 11.00 | Cc1cc(C(N)=O)c(F)cc1Nc1ncc2c(n1)n(C13CC4CC(CC(O)(C4)C1)C3)c(=O)n2C [Compound 22, 2-Fluoro-4-((9-(3-hydroxyadamantan-1-yl)-7-methyl-8-oxo-8,9-dihydro-7H-purin-2-yl)amino)-5-methylbenzamide] |
| 9.49 | Cc1cc2ncnn2cc1Nc1ncc2[nH]c(=O)n(C34CC5CC(CC(O)(C5)C3)C4)c2n1 [Compound 36, 9-(3-Hydroxyadamantan-1-yl)-2-((7-methyl-[1,2,4]triazolo[1,5-a]pyridin-6-yl)amino)-7,9-dihydro-8H-purin-8-one] |
| 9.17 | Cc1cc(C#N)ccc1Nc1ncc2c(n1)n(C1C3CC4CC1CC(O)(C4)C3)c(=O)n2C (single isomer, unassigned) [Compound 13-1, 4-((9-(5-Hydroxyadamantan-2-yl)-7-methyl-8-oxo-8,9-dihydro-7H-purin-2-yl)amino)-3-methylbenzonitrile] |

target: T1, DNA-PK kinase; assay: biochemical
Procedure: Inhibition of DNA-PK Kinase
The inhibitory activity of the compounds against DNA-PK kinase was determined using a DNA-PK kinase assay kit (purchased from Promega, Cat. No. V4107, Batch No. 0000366495). The results were quantified using chemiluminescence, specifically as follows: • i. ADP-fluorescence standard curves at different concentrations were constructed according to the instructions of the kit; • ii. reaction systems (5 L) were prepared in a 384-well white plate; 1 μL of a compound (concentration gradients 1 μM, 200 nM, 40 nM, 8 nM, 1.6 nM, 0.32 nM, 0.064 nM and 0.013 nM were set for each compound), 20 units of DNA-PK kinase, 0.2 μg/μL substrate, 10 μg/μL DNA, 50 μM ATP and 1% DMSO were successively added to each well; • iii. the mixtures were well mixed, centrifuged (1000 rpm, 30 s), and incubated at 37° C. for 60 min; • iv. the reactions were terminated by adding 5 μL of ADP-Glo™ Reagent; the mixtures were well mixed, centrifuged (1000 rpm, 30 s), and incubated at room temperature for 40 min; • v. 10 μL of Kinase Detection Reagent was added; the mixtures were well mixed by shaking, centrifuged (1000 rpm, 30 s), and incubated at room temperature for 30 min; • vi. fluorescence values were measured using a microplate reader (Thermo fisher, Varioskan LUX). IC50 was calculated using GraphPad Prism 8.

| pIC50 | SMILES |
| --- | --- |
| 8.96 | CNC(=O)c1cc(C)c(Nc2ncc3c(n2)n(C24CC5CC(CC(O)(C5)C2)C4)c(=O)n3C)cn1 [Compound 15, 5-((9-(3-Hydroxyadamantan-1-yl)-7-methyl-8-oxo-8,9-dihydro-7H-purin-2-yl)amino)-N,4-dimethylpicolinamide] |
| 9.89 | Cc1cc2ncnn2cc1Nc1ncc2c(n1)n(C13CC4CC(C1)C(O)C(C4)C3)c(=O)n2C (stereo not drawn) [Compound 18-2, 9-(4-Hydroxyadamantan-1-yl)-7-methyl-2-((7-methyl-[1,2,4]triazolo[1,5-a]pyridin-6-yl)amino)-7,9-dihydro-8H-purin-8-one] |
